Results as given in patent publication US20050282743A1, “Molecular interactions in cells” (Arbor Vita Corporation, priority 2001, published 2005).
Ends that are not written are not given here. Peptide text beside a SMILES is read from it. * marks the point of attachment. Biotin = O=C1N[C@H]2[C@H](CS[C@H]2CCCCC(=O)*)N1

Legend:
Assay in all cases: G' assay (10 uM PL peptide), results of TABLE 7 and TABLE 12
Assay type in all cases: binding
[1] = molecular target: T1, PDZ protein (GST-PDZ fusion) (Homo sapiens, UniProt Q15700)
T1 construct: made in house; host or cells: E. coli (DH5alpha, BL21 or JM109)
T1 sequence (Q15700 whole entry, the tested form may be a part): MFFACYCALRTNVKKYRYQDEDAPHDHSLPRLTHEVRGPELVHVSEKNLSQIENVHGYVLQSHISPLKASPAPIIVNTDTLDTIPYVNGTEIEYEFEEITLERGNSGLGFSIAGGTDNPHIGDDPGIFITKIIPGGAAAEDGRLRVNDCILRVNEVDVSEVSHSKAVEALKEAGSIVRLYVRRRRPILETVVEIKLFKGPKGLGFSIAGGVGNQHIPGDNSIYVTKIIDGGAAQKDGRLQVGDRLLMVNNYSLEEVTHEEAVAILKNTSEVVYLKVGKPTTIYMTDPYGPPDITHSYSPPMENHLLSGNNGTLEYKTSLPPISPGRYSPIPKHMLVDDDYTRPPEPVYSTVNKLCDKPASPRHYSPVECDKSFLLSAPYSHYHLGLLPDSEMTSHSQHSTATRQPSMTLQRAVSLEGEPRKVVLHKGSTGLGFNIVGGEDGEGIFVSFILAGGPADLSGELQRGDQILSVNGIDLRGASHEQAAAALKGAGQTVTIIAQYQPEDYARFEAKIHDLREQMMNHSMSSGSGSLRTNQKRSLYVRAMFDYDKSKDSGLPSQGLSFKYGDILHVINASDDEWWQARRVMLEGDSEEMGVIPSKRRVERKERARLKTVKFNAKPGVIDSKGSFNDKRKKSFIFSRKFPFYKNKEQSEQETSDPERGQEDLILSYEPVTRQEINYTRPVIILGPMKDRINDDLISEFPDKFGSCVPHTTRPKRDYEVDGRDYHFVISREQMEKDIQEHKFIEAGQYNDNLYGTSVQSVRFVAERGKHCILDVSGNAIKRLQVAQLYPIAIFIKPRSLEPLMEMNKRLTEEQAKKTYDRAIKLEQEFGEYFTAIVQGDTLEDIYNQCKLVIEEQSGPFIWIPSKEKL
Procedure, shortened: (§1)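 Biotinylated PL peptides at 10 uM (vs 20 uM in G^0 assay) bound to GST-PDZ fusions; PDZ protein at 5 ug/ml unless another concentration listed. Bound peptide read as A450 nm, classified 0–5 (0 = A450 0; 5 = A450 >4 repeated).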

[2] = molecular target: T2, PDZ protein (GST-PDZ fusion) (Homo sapiens, UniProt O15018)
T2 construct: made in house; host or cells: E. coli (DH5alpha, BL21 or JM109)
Procedure, shortened: as §1

[3] = molecular target: T3, PDZ protein (GST-PDZ fusion) (Homo sapiens, UniProt O14907); conditions: PDZ TIP1, PDZ Domain 1
T3 construct: made in house; host or cells: E. coli (DH5alpha, BL21 or JM109)
T3 sequence (O14907 1-124): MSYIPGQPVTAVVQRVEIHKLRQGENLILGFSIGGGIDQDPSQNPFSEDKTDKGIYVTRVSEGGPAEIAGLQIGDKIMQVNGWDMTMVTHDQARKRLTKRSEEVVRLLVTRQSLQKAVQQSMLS
Procedure, shortened: as §1

[4] = molecular target: T4, PDZ protein (GST-PDZ fusion) (Homo sapiens, UniProt Q86UL8)
T4 construct: made in house; host or cells: E. coli (DH5alpha, BL21 or JM109)
T4 sequence (Q86UL8 whole entry, the tested form may be a part): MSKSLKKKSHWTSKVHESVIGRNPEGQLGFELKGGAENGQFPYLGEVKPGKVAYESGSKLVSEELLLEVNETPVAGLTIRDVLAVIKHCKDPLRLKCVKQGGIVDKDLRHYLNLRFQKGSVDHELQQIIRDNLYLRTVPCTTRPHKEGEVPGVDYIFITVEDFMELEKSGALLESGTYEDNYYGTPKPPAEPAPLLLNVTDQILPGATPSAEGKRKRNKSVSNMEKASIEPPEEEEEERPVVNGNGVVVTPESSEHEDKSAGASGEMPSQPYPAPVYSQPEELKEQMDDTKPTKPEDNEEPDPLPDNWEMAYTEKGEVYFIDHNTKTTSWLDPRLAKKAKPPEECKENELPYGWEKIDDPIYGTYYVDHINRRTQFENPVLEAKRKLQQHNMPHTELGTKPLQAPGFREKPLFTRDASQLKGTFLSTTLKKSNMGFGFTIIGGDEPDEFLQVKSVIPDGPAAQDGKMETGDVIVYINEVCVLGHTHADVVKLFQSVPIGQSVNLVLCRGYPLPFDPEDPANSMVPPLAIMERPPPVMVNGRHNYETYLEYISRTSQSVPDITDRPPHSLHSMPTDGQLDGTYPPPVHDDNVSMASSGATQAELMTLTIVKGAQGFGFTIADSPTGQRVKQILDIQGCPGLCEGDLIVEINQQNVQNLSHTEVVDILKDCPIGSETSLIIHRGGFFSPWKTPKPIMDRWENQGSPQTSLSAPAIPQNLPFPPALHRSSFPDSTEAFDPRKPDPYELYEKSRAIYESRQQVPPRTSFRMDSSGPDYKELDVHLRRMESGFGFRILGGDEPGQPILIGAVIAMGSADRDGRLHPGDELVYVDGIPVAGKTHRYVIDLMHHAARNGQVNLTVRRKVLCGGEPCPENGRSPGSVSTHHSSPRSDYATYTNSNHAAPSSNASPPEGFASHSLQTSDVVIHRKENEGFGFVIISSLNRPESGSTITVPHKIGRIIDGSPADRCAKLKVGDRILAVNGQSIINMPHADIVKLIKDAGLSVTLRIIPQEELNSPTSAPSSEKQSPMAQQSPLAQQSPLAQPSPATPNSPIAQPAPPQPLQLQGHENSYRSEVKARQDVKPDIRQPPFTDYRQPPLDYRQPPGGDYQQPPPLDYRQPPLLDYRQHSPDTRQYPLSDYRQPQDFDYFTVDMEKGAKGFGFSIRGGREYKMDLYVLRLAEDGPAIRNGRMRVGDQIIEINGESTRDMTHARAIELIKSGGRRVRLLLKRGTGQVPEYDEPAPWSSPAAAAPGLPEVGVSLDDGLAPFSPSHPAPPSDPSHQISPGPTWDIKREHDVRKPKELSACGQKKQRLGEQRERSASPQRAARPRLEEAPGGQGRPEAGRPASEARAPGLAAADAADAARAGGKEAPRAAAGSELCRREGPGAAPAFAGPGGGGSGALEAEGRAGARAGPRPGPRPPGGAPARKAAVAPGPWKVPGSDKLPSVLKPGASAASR
Procedure, shortened: as §1

[5] = molecular target: T5, PDZ protein (GST-PDZ fusion) (Homo sapiens, UniProt P57105); conditions: PDZ Outer Membrane, PDZ Domain 1
T5 construct: made in house; host or cells: E. coli (DH5alpha, BL21 or JM109)
T5 sequence (P57105 1-145): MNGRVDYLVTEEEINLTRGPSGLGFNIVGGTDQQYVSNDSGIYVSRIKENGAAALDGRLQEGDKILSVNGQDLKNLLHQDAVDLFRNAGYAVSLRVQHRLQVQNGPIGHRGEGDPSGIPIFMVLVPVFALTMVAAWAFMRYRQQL
Procedure, shortened: as §1

[6] = molecular target: T6, PDZ protein (GST-PDZ fusion) (Homo sapiens, UniProt P78352)
T6 construct: made in house; host or cells: E. coli (DH5alpha, BL21 or JM109)
T6 sequence (P78352 whole entry, the tested form may be a part): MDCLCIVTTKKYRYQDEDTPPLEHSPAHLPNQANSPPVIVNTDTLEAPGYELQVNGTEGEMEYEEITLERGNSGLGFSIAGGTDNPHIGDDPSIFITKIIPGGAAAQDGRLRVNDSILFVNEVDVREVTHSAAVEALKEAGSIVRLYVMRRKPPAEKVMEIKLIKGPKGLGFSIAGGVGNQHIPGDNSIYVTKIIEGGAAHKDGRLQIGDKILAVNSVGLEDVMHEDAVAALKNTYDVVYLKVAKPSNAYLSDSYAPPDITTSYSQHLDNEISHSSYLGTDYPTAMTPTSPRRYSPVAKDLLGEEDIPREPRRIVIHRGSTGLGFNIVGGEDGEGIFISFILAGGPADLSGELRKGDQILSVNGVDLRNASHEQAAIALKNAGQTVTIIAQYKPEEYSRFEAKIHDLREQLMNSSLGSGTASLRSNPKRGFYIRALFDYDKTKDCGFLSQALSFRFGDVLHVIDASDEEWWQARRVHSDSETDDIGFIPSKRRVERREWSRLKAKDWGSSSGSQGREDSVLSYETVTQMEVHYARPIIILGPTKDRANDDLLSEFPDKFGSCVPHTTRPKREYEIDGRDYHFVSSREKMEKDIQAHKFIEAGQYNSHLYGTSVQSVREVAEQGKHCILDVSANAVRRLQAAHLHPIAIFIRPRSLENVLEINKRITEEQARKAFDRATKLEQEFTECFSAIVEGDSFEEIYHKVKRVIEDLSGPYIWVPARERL
Procedure, shortened: as §1

[7] = molecular target: T7, PDZ protein (GST-PDZ fusion) (Homo sapiens, UniProt Q9P202); conditions: PDZ KIAA1526, PDZ Domain 1
T7 construct: made in house; host or cells: E. coli (DH5alpha, BL21 or JM109)
T7 sequence (Q9P202 1-907): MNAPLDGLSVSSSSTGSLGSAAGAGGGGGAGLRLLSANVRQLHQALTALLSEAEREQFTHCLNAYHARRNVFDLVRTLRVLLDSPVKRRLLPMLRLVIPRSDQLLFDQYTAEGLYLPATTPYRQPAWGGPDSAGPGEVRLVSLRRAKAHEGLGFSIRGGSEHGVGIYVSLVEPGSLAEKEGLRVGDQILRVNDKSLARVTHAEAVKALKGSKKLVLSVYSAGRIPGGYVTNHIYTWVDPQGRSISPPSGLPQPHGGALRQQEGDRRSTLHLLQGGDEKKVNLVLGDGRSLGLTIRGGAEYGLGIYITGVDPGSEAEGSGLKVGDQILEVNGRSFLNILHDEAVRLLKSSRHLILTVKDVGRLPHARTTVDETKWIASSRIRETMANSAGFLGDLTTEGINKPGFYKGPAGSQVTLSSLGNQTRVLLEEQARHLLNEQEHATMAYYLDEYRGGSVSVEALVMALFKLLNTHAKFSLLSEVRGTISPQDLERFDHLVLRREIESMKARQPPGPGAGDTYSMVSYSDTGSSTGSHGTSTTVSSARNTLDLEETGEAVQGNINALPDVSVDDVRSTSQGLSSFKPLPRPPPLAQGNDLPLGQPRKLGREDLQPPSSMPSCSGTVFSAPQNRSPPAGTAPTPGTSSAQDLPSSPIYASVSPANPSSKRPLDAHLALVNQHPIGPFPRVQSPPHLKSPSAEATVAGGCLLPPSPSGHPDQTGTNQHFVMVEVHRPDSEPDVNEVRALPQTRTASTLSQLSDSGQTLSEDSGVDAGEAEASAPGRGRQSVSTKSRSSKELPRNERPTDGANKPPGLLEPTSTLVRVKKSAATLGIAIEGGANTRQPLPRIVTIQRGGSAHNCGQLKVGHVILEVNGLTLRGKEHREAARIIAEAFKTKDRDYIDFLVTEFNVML
Procedure, shortened: as §1

[8] = molecular target: T8, PDZ protein (GST-PDZ fusion) (Homo sapiens, UniProt Q14160)
T8 construct: made in house; host or cells: E. coli (DH5alpha, BL21 or JM109)
Procedure, shortened: as §1

[9] = molecular target: T9, PDZ protein (GST-PDZ fusion) (Homo sapiens, UniProt Q9NZN5); conditions: PDZ KIAA0382, PDZ Domain 1
T9 construct: made in house; host or cells: E. coli (DH5alpha, BL21 or JM109)
T9 sequence (Q9NZN5 whole entry, the tested form may be a part): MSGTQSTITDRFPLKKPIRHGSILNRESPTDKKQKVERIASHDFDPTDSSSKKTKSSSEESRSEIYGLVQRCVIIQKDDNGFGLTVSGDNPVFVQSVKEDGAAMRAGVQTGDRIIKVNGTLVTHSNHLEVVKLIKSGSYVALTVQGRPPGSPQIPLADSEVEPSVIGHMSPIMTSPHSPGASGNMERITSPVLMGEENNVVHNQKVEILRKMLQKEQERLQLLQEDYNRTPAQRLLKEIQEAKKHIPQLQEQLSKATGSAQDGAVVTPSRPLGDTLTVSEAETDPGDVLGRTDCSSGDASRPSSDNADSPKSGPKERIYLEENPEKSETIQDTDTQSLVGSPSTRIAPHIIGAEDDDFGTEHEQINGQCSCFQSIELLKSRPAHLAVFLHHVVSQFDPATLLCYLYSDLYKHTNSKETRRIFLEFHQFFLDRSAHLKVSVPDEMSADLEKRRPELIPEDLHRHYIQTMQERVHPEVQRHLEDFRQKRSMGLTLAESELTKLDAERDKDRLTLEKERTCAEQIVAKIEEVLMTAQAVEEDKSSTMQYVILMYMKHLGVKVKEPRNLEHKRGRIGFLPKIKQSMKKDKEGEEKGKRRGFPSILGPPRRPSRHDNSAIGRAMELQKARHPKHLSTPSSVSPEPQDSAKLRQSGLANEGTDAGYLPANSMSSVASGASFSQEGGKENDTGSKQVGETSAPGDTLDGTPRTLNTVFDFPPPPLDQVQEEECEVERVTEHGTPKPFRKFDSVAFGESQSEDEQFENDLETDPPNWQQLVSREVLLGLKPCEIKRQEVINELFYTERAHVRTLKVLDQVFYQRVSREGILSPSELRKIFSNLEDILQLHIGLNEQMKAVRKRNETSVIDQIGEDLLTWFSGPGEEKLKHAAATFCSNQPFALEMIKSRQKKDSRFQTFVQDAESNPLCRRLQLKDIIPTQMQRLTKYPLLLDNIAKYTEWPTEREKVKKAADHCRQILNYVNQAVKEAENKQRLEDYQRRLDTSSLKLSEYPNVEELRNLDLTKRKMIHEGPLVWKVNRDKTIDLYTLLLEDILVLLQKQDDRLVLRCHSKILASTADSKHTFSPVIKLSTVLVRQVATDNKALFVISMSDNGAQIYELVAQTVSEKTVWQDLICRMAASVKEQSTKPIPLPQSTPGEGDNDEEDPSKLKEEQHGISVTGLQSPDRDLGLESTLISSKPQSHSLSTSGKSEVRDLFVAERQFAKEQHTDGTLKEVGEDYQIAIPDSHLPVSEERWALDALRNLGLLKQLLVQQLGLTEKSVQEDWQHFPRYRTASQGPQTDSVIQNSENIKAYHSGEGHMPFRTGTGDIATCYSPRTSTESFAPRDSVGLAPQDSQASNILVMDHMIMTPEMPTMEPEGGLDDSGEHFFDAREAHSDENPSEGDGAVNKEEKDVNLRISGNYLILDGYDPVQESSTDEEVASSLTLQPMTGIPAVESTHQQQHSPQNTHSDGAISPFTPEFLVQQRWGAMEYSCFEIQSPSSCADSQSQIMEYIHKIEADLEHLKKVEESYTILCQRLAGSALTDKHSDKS
Procedure, shortened: as §1

[10] = molecular target: T10, PDZ protein (GST-PDZ fusion) (Homo sapiens, UniProt Q8NI35); conditions: PDZ INADL
T10 construct: made in house; host or cells: E. coli (DH5alpha, BL21 or JM109)
Procedure, shortened: as §1

[11] = PDZ Atrophin-1 Inter. Prot., PDZ Domain 5
[12] = PDZ atrophin-1 interacting Protein (Atrophin-1 Inter. Prot.), PDZ Domain 1

Compound	Classification ([1]; PDZ DLG2, PDZ Domain 2)	Classification ([2]; PDZ AIPC, PDZ Domain 1)	Classification [3]	Classification [4, 11]	Classification [5]	Classification ([6]; PDZ PSD95, PDZ Domain 1)	Classification ([6]; PDZ PSD95, PDZ Domain 1, 2, 3)	Classification [7]	Classification ([8]; PDZ KIAA0147, PDZ Domain 1)	Classification [9]	Classification ([10]; PDZ Domain 8)	other results
CC(C)C[C@H](NC(=O)[C@H](C)NC(=O)[C@@H](NC(=O)[C@H](CCC(=O)O)NC(=O)[C@H](CCCNC(=N)N)NC(=O)[C@H](CCCNC(=N)N)NC(=O)CNC(=O)[C@H](CCC(N)=O)NC(=O)[C@H](CC(C)C)NC(=O)[C@H](CCCNC(=N)N)NC(=O)CNC(=O)CNC(=O)[C@H](CCCNC(=N)N)NC(=O)[C@H](C)NC(=O)[C@H](CO)NC(=O)[C@H](CCCNC(=N)N)NC(=O)CNC(=O)CNC(=O)[C@H](C)NC(=O)[C@H](C)NC(=O)CCCC[C@@H]1SC[C@@H]2NC(=O)N[C@@H]21)[C@@H](C)O)C(=O)O [HPV E6 33 (modified)] (Biotin-AAGGRSARGGRLQGRRETAL-OH; C-terminus assumed)	3 (A450 nm 2-3)	1 (A450 nm 0-1)	5 (A450 nm of 4 more than 2× repeated)	1 (A450 nm 0-1)	5 (A450 nm of 4 more than 2× repeated)	2 (A450 nm 1-2)	5 (A450 nm of 4 more than 2× repeated)	1 (A450 nm 0-1)	5 (A450 nm of 4 more than 2× repeated)	–	–	Classification ([1]; PDZ DLG2, PDZ Domain 1): 1 (A450 nm 0-1); Classification [4, 12]: 4 (A450 nm 3-4); Classification ([6]; PDZ PSD95, PDZ Domain 3): 5 (A450 nm of 4 more than 2× repeated); Classification ([8]; PDZ KIAA0147, PDZ Domain 3): 2 (A450 nm 1-2)
QATSRNGHSARQHVVADTEL (Biotin-QATSRNGHSARQHVVADTEL) [CD34]	–	–	–	1 (A450 nm 0-1)	–	–	–	–	1 (A450 nm 0-1)	1 (A450 nm 0-1)	–	–
CC[C@H](C)[C@H](NC(=O)[C@H](CO)NC(=O)[C@H](CCC(=O)O)NC(=O)[C@H](Cc1ccc(O)cc1)NC(=O)[C@H](CC(=O)O)NC(=O)[C@H](CC(N)=O)NC(=O)[C@H](CCC(=O)O)NC(=O)[C@H](CCCCN)NC(=O)CCCC[C@@H]1SC[C@@H]2NC(=O)N[C@@H]21)C(=O)N[C@@H](CO)C(=O)N[C@@H](CC(=O)O)C(=O)N[C@@H](CC(C)C)C(=O)N[C@@H](CCC(N)=O)C(=O)N[C@@H](CCC(N)=O)C(=O)NCC(=O)N[C@@H](CCCNC(=N)N)C(=O)N[C@@H](CC(=O)O)C(=O)N[C@H](C(=O)N[C@H](C(=O)N[C@@H](CCCNC(=N)N)C(=O)N[C@@H](CC(C)C)C(=O)O)[C@@H](C)O)[C@@H](C)CC [PAG] (Biotin-KENDYESISDLQQGRDITRL-OH; C-terminus assumed)	–	–	–	1 (A450 nm 0-1)	2 (A450 nm 1-2)	–	–	–	–	1 (A450 nm 0-1)	–	–
CC[C@H](C)[C@H](NC(=O)[C@H](Cc1ccc(O)cc1)NC(=O)[C@@H](NC(=O)[C@@H]1CCCN1C(=O)[C@H](CCC(N)=O)NC(=O)[C@H](CCC(=O)O)NC(=O)[C@H](CCC(N)=O)NC(=O)[C@H](C)NC(=O)[C@@H](NC(=O)[C@H](CC(C)C)NC(=O)[C@H](CC(C)C)NC(=O)[C@H](CCCNC(=N)N)NC(=O)[C@H](Cc1ccc(O)cc1)NC(=O)[C@H](CCSC)NC(=O)[C@H](C)NC(=O)[C@H](C)NC(=O)[C@@H]1CCCN1C(=O)[C@H](CCSC)NC(=O)[C@@H](NC(=O)[C@H](CCCCN)NC(=O)CCCC[C@@H]1SC[C@@H]2NC(=O)N[C@@H]21)[C@@H](C)O)[C@@H](C)O)C(C)C)C(=O)O [MINT-1] (Biotin-KTMPAAMYRLLTAQEQPVYI-OH; C-terminus assumed)	–	1 (A450 nm 0-1)	–	–	–	–	–	–	–	1 (A450 nm 0-1)	1 (A450 nm 0-1)	Classification ([2]; PDZ KIAA0300, PDZ Domain 1): 4 (A450 nm 3-4)
KTMPAAMFRLLTGQETPLYI (Biotin-KTMPAAMFRLLTGQETPLYI) [MINT-2]	–	1 (A450 nm 0-1)	–	–	–	–	–	–	–	1 (A450 nm 0-1)	–	Classification ([2]; PDZ KIAA0300, PDZ Domain 1): 3 (A450 nm 2-3)
LASKSAEEGKQIPDSLSTDL (Biotin-LASKSAEEGKQIPDSLSTDL) [Dock2]	–	–	–	1 (A450 nm 0-1)	–	–	–	–	1 (A450 nm 0-1)	1 (A450 nm 0-1)	–	Classification ([10]; PDZ Domain 3): 1 (A450 nm 0-1)
APC—adenomatous polyposis coli protein (ESSGTQSPKRHSGSYLVTSV)	–	–	3 (A450 nm 2-3)	–	2 (A450 nm 1-2)	–	5 (A450 nm of 4 more than 2× repeated)	–	1 (A450 nm 0-1)	1 (A450 nm 0-1)	2 (A450 nm 1-2)	–
CC(C)C[C@H](NC(=O)[C@H](C)NC(=O)[C@H](CO)NC(=O)CNC(=O)[C@@H](NC(=O)CCCC[C@@H]1SC[C@@H]2NC(=O)N[C@@H]21)[C@@H](C)O)C(=O)N[C@@H](CCC(N)=O)C(=O)N[C@@H](C)C(=O)N[C@@H](Cc1c[nH]c2ccccc12)C(=O)N[C@@H](CCCNC(=N)N)C(=O)N[C@@H](Cc1c[nH]cn1)C(=O)N[C@H](C(=O)N[C@@H](CO)C(=O)N[C@@H](CCCNC(=N)N)C(=O)N[C@@H](CCC(N)=O)C(=O)N[C@@H](C)C(=O)N[C@H](C(=O)N[C@@H](CCC(=O)O)C(=O)N[C@@H](CO)C(=O)N[C@H](C(=O)N[C@H](C(=O)O)C(C)C)[C@@H](C)O)[C@@H](C)O)[C@@H](C)O [HPV E6 #66 (modified)] (Biotin-TGSALQAWRHTSRQATESTV-OH; C-terminus assumed)	5 (A450 nm of 4 more than 2× repeated)	1 (A450 nm 0-1)	5 (A450 nm of 4 more than 2× repeated)	1 (A450 nm 0-1)	5 (A450 nm of 4 more than 2× repeated)	4 (A450 nm 3-4)	5 (A450 nm of 4 more than 2× repeated)	1 (A450 nm 0-1)	2 (A450 nm 1-2)	–	1 (A450 nm 0-1)	Classification ([1]; PDZ DLG2, PDZ Domain 1): 1 (A450 nm 0-1); Classification [4, 12]: 5 (A450 nm of 4 more than 2× repeated); Classification ([6]; PDZ PSD95, PDZ Domain 3): 1 (A450 nm 0-1)
PYSELNYETSHYPASPDSWV (Biotin-PYSELNYETSHYPASPDSWV) [catenin - delta 2]	1 (A450 nm 0-1)	2 (A450 nm 1-2)	3 (A450 nm 2-3)	5 (A450 nm of 4 more than 2× repeated)	5 (A450 nm of 4 more than 2× repeated)	1 (A450 nm 0-1)	2 (A450 nm 1-2)	2 (A450 nm 1-2)	–	–	2 (A450 nm 1-2)	Classification ([10]; PDZ Domain 5): 1 (A450 nm 0-1); Classification ([4]; PDZ atrophin-1 interacting Protein, PDZ Domain 3): 1 (A450 nm 0-1); Classification ([8]; PDZ KIAA0147, PDZ Domain 2): 3 (A450 nm 2-3); Classification ([8]; PDZ KIAA0147, PDZ Domain 4): 1 (A450 nm 0-1)
